EP1080724A1, “MTP ACTIVITY-LOWERING COMPOSITIONS” (Nippon Shinyaku Co., Ltd., priority 1998, dated 1999)
Where a name gives a salt, the structure may show the parent alone.

Columns and labels:
HepG2 cells [1] = test: TG antisecretory activity: secreted triglyceride from labeled lipid in medium; type: cell-based; conditions: 10 µM, 24 hours of culture, control group 161.2± 2.2
Procedure: HepG2 cells were cultured in DME medium supplemented with 1% BSA and 0.5 mM oleic acid for 24 hours. Then, the medium was changed to 1% BSA-DME containing 10 µM of the amino acid of the invention and simultaneously 0.5 µci of [^14C] acetic acid was added. The cells and medium were recovered after 24 hours of culture. The recovered cells were homogenized by sonication, and after quantitation of protein, the amount of secreted triglyceride (TG) was determined from the amount of labeled lipid in the medium.

MTP = MTP activity-lowering activity (MTP activity in liver homogenate of orally dosed rats, method of Wetterau); type: in vivo; conditions: SD rats, control group 9.09±1.0
Procedure: SD rats weighing about 200 g in groups of 6 were given 20 mg or 60 mg of the hydrochloride of the amino acid of the invention in 10 ml of water in 3 divided doses daily for 2 weeks. Thereafter, the liver was excised and homogenized using a homogenizing buffer (50 mM Tris (pH 7.4), 50 mM potassium chloride, […], leupeptin (5 µg/ml) and 2 mM phenylmethylsulfonyl fluoride) and the homogenate was centrifuged to give a liver homogenate. This liver homogenate was adjusted to a protein concentration of about 2 mg/mL with the same homogenizing buffer and 1 part of deoxycholate solution (0.56%, pH 7.5) was added to 10 parts of the homogenate. The reaction was then carried out at 4°C for 30 minutes, whereby MTP was liberated from the microsomal fraction. The membrane fraction was then removed by centrifugation to give a supernatant. This supernatant was diluted with Tris buffer (a buffer solution containing 15 mM Tris (pH 7.4), 40 mM NaCl, 1 mM EDTA, 0.02% NaN3) and dialyzed against the same buffer at 4°C overnight. The dialysate thus obtained was analyzed for MTP activity by the method of J. R. Wetterau [Science, 258, 999 (1992)].

HepG2 cells [2] = test: Apo B antisecretory activity (1): apo B secreted into medium, ELISA; type: cell-based, human; conditions: for Apo B secretions (µg/well): HepG2 cells, 24 hours culture, control group 9.92±0.80
Procedure: HepG2 cells (100×10^4 cells/dish) were sown on 3.5 cm dishes and precultured using 1 ml DME (containing 10% FCS) medium per dish. Following this preculture, the cells were washed with DME medium twice, added to the test medium, and cultured at 37°C under 95% air-5% carbon dioxide for 24 hours. The test medium was prepared by dissolving cycloalliin in dimethyl sulfoxide and diluted with DME medium containing 1% BSA and 0.5 mM oleic acid to a final cycloalliin concentration of 10^-6 M or 10^-4 M.
After 24 hours' culture, the medium was recovered and the amount of apo B secreted into the medium was determined by ELISA. Thus, anti-human apo B antibody (a 100-fold dilution) was distributed into a 96-well ELISA plate, 100 µL per well, and incubated at 37°C for 2 hours. Then, 100 µL/well of Block Ace was added and the plate was further incubated at 37°C for 2 hours. The wells were washed with PBS-Tween × 3 and 100 µL each of apo B standard solution and HepG2 culture were added, followed by further incubation at 4°C for 16 hours. After the wells were washed with PBS-Tween × 3, 100 µL/well of anti-human apo B marker antibody (a 200-fold dilution) was added and the plate was incubated at 37°C for 2 hours. The wells were washed with PBS-Tween × 3, then 100 µL/well of the substrate solution was added, and the plate was incubated at 25°C for 30 minutes. The reaction was stopped by adding 50 µL of 4.5 M H2SO4 and the absorbance at 482 nm was measured to estimate the amount of apo B secretion.

HepG2 cells [3] = test: Apo B antisecretory activity (2): apo B secretions, ELISA; type: cell-based; conditions: 10 µM; for Apo B secretions (ng/mg protein) After 24 hr of culture: control group 2544±425; for Apo B secretions After 24 hr of culture (%) / Apo B secretions After 48 hr of culture (%): percent of control group (100); for Apo B secretions (ng/mg protein) After 48 hr of culture: control group 2080±110
Procedure: HepG2 cells were cultured in DME medium supplemented with 1% BSA and 0.5 mM oleic acid for 24 hours. Then, the medium was changed to 1% BSA-DME medium containing 10 µM of the amino acid of the invention and 0.5 µci of [^14C] acetic acid was simultaneously added. The cells and medium were recovered after 24 hours or 48 hours of culture. The recovered cells were homogenized by sonication, and after quantitation of protein, the amount of apo B secretions was determined by ELISA.

[4] = 60 mg in 10 ml of water in 3 divided doses daily for 2 weeks

C[S+]([O-])CCC(N)C(=O)O (racemic) [DL-methionine sulfoxide]
TG secretions ([^14C]dpm × 10^-2/mg protein) (HepG2 cells [1]): 72.1± 8.5 [^14C]dpm × 10^-2/mg protein

C[C@H]1C[S@+]([O-])C[C@@H](C(=O)O)N1 [Cycloalliin HCl, (1S,3R,5S)-5-methyl-1,4-thiazane-3-carboxylic acid 1-oxide]
MTP activity (%) (MTP; 20 mg in 10 ml of water in 3 divided doses daily for 2 weeks): 6.12±0.7 % | MTP activity (%) (MTP; [4]): 4.92±1.0 %

C[C@H]1C[S@+]([O-])C[C@@H](C(=O)O)N1 [Cycloalliin, (1S,3R,5S)-5-methyl-1,4-thiazane-3-carboxylic acid 1-oxide]
Apo B secretions (µg/well) (HepG2 cells [2]; 10^-4 M): 7.67±1.31 µg/well | Apo B secretions (µg/well) (HepG2 cells [2]; 10^-6 M): 7.54±1.13 µg/well | apo B secretion (result in words) (HepG2 cells [2]; summary of Table 2): significant suppression

CCSC[C@H](N)C(=O)O [S-ethyl-L-cysteine]
Apo B secretions (ng/mg protein) After 24 hr of culture (HepG2 cells [3]): 2390±615 ng/mg protein | Apo B secretions After 24 hr of culture (%) (HepG2 cells [3]): 93.9% | Apo B secretions (ng/mg protein) After 48 hr of culture (HepG2 cells [3]): 994±111 ng/mg protein | Apo B secretions After 48 hr of culture (%) (HepG2 cells [3]): 47.8% | TG secretions ([^14C]dpm × 10^-2/mg protein) (HepG2 cells [1]): 102.2± 7.1 [^14C]dpm × 10^-2/mg protein

CSC[C@H](N)C(=O)O [S-methyl-L-cysteine HCl, S-methyl-L-cysteine]
MTP activity (%) (MTP; [4]): 5.68±0.6 %

CSC[C@H](N)C(=O)O [S-methyl-L-cysteine]
Apo B secretions (ng/mg protein) After 24 hr of culture (HepG2 cells [3]): 2511±173 ng/mg protein | Apo B secretions After 24 hr of culture (%) (HepG2 cells [3]): 98.7% | Apo B secretions (ng/mg protein) After 48 hr of culture (HepG2 cells [3]): 1906±122 ng/mg protein | Apo B secretions After 48 hr of culture (%) (HepG2 cells [3]): 91.6% | TG secretions ([^14C]dpm × 10^-2/mg protein) (HepG2 cells [1]): 128.2±14.6 [^14C]dpm × 10^-2/mg protein

CCCSC[C@H](N)C(=O)O [S-n-propyl-L-cysteine]
Apo B secretions (ng/mg protein) After 24 hr of culture (HepG2 cells [3]): 2157± 86 ng/mg protein | Apo B secretions After 24 hr of culture (%) (HepG2 cells [3]): 84.8% | Apo B secretions (ng/mg protein) After 48 hr of culture (HepG2 cells [3]): 555± 23 ng/mg protein | Apo B secretions After 48 hr of culture (%) (HepG2 cells [3]): 26.7% | TG secretions ([^14C]dpm × 10^-2/mg protein) (HepG2 cells [1]): 99.0± 9.3 [^14C]dpm × 10^-2/mg protein

S-methyl-L-cysteine sulfoxide [S-methyl-L-cysteine sulfoxide HCl]
MTP activity (%) (MTP; [4]): 5.43±0.6 %

S-n-propyl-L-cysteine sulfoxide
TG secretions ([^14C]dpm × 10^-2/mg protein) (HepG2 cells [1]): 105.8±18.9 [^14C]dpm × 10^-2/mg protein
